# Laboratory results reported in US20260308222A1, “STABILIZED ANALOGUES OF CALCITONIN” (YISSUM RESEARCH DEVELOPMENT COMPANY OF THE HEBREW …, priority 2024, published 2026).
# “And” between values parts separate entries of the source, which are not always exact repeats. Identical values can stand only once.
# Columns and labels:
# [1] = Degradation in simulated gastric fluid (SGF); assay type: in vitro ADME; conditions: for SGF t1/2: pepsin 0.2 mg/mL stock; for SGF t1/2 / half-life in SGF relative to sCT / half-life: pH 1.3, 37 °C; for half-life in SGF relative to sCT: pepsin; for half-life: simulated gastric fluid, pH 1.3, pepsin 0.2 mg/mL stock, read-out: SGF t1/2
# Description: sCT and its analogues were evaluated for their degradation in simulated gastric fluid (SGF). The stock solution of each analogue was prepared by dissolving 2 mg of the peptide in 1 mL water. The stock solution of pepsin enzyme was prepared by dissolving 5 mg of pepsin in 5 mL of 10 mM HCl (1 mg/mL), and then was diluted to a 0.2 mg/mL with 10 mM HCl. 7 For degradation, 34 μL of pepsin (0.2 mg/mL) was added to 100 μL of peptide (2 mg/mL) at pH 1.3 and the reaction incubated at 37° C. To monitor the degradation, 10 μL of the reaction aliquots were taken and quenched with 10 μL of 10 mM NaOH every 30 min for several hours and analyzed by HPLC using XSelect C18 column ([…], 130 A, 4.6×150 mm) with a gradient of 5-70% of 0.1% TFA in MeCN over 20 min with monitoring at 220 nm.
# [2] = target: T1, calcitonin receptor (CTR) (Homo sapiens, UniProt P30988); assay: Ca^2+ concentration assay, HEK293 CALCR-HiTSeeker cell line; assay type: cell-based; design: expressed in transfected cells; conditions: HEK293 CALCR-HiTSeeker cells
# T1 sequence (P30988 25-474): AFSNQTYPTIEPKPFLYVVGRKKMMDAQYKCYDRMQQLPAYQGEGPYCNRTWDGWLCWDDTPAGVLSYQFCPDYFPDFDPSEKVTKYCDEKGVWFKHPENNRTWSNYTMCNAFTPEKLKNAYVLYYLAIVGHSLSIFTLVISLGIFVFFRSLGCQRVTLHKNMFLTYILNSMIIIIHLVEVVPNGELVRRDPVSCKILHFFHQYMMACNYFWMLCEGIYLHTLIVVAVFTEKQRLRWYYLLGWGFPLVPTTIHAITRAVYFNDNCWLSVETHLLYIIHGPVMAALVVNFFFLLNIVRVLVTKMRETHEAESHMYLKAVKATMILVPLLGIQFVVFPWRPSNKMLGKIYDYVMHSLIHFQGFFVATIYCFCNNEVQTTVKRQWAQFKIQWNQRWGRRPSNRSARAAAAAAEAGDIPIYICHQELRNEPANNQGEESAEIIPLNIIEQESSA
# [3] = Degradation in simulated intestinal fluid (SIF); conditions: for stability in SIF compared to sCT: pancreatin; for half-life: simulated intestinal fluid, pH 6.8, SIF t1/2, pancreatin 2 mg/mL stock
# [4] = target: T1, calcitonin receptor (CTR); assay: cAMP accumulation assay, U2OS Red cAMPNomad-CALCR cell line; assay type: cell-based; design: expressed in transfected cells; host or cells: U2OS Red cAMPNomad-CALCR; conditions: U2OS Red cAMPNomad-CALCR cells; for EC50: overnight incubation
# [5] = Circular dichroism analysis, percent α-helicity; assay type: physicochemical; conditions: 10 mM phosphate buffer pH 7, SDS; for % α helicity: 10-30 μM peptide, 2 h folding
# Description: Following synthesis of the calcitonin analogues, the helicity of the calcitonin analogues was assessed by circular dichroism analysis. Far ultraviolet spectra (FIG. 6) were obtained from 195-260 nm on J-180 spectropolarimeter (Jasco) using 10-30 μM of sCT and all analogues in 10 mM phosphate buffer pH 7 and in the presence of sodium dodecyl sulphate (SDS), which were left for 2 h to allow folding. Each spectrum represents the average of 3 scans, and the mean residue ellipticity (θMRE) was calculated according to the following equation: […]
# Percentage helicity of peptides as presented in Table 2 was calculated according to the following equation (Sommese, et al. 2010): […]
# where n is the number of amino acids in the peptide.
SGF t1/2 [1] [min],half-life in SGF relative to sCT ([1]; vs sCT),half-life [1] [min],"improvement in stability in simulated gastric fluid over sCT ([1]; vs sCT, first figure of sentence) [fold]",EC50 ([2]; read-out: Ca^2+ EC50) [nM],"SIF t1/2 ([3]; pancreatin 2 mg/mL stock, pH 6.8, 37 °C) [min]","half-life ([3]; pH 6.8, 37 °C) [min]","improvement in stability in simulated gastric fluid ([3]; vs sCT, second figure of sentence) [fold]",EC50 ([4]; read-out: cAMP EC50),helicity retained following cyclization [5],% α helicity [5] [%],Ca^2+ EC50 / efficacy [2],cAMP EC50 / potency [4],EC50 ([2]; read-out: Ca^2+ EC50 (bound)) [nM],EC50 ([4]; read-out: cAMP EC50 (bound)) [nM],SMILES,"stability in SIF compared to sCT ([3]; pH 6.8, 37 °C, vs sCT)"
170.6 ± 32.2,five-fold longer half-life,170,5,216 ± 43.8,41.9 ± 6.1,42,6,2.67 nM and 2.7 nM,,,,,,,CC(C)C[C@@H]1NC(=O)[C@@H](NC(=O)CNC(=O)[C@H](CC(C)C)NC(=O)[C@@H](NC(=O)[C@@H]2CSSC[C@H](N)C(=O)N[C@@H](CO)C(=O)N[C@@H](CC(N)=O)C(=O)N[C@@H](CC(C)C)C(=O)N[C@@H](CO)C(=O)N[C@@H]([C@@H](C)O)C(=O)N2)C(C)C)CCCCNCc2cc(ccc2O)C[C@@H](C(=O)N2CCC[C@H]2C(=O)N[C@@H](CCC(N)=O)C(=O)N[C@H](C(=O)N[C@@H](CC(N)=O)C(=O)N[C@H](C(=O)NCC(=O)N[C@@H](CO)C(=O)NCC(=O)N[C@H](C(=O)N2CCC[C@H]2C(N)=O)[C@@H](C)O)[C@@H](C)O)[C@@H](C)O)NC(=O)[C@H]([C@@H](C)O)NC(=O)[C@H](CCC(N)=O)NC(=O)[C@H](CC(C)C)NC(=O)[C@H](CCCCN)NC(=O)[C@H](Cc2c[nH]cn2)NC(=O)[C@H](CC(C)C)NC(=O)[C@H](CCC(=O)O)NC(=O)[C@H](CCC(N)=O)NC(=O)[C@H](CO)NC1=O [KaY-1(R24Q)],six-fold enhancement in stability compared to sCT
191.2 ± 66.1,five-fold longer half-life,190,,166 ± 34.8,,7.1 ± 0.7,,47.6 ± 24.1 nM,retain the high degree of helicity,93.7,similar,EC50 in the nanomolar range,,,CC(C)C[C@@H]1NC(=O)[C@@H](NC(=O)CNC(=O)[C@H](CC(C)C)NC(=O)[C@@H](NC(=O)[C@@H]2CSSC[C@H](N)C(=O)N[C@@H](CO)C(=O)N[C@@H](CC(N)=O)C(=O)N[C@@H](CC(C)C)C(=O)N[C@@H](CO)C(=O)N[C@@H]([C@@H](C)O)C(=O)N2)C(C)C)CCCCNCc2cc(ccc2O)C[C@@H](C(=O)N2CCC[C@H]2C(=O)N[C@@H](CCCNC(=N)N)C(=O)N[C@H](C(=O)N[C@@H](CC(N)=O)C(=O)N[C@H](C(=O)NCC(=O)N[C@@H](CO)C(=O)NCC(=O)N[C@H](C(=O)N2CCC[C@H]2C(N)=O)[C@@H](C)O)[C@@H](C)O)[C@@H](C)O)NC(=O)[C@H]([C@@H](C)O)NC(=O)[C@H](CCC(N)=O)NC(=O)[C@H](CC(C)C)NC(=O)[C@H](CCCCN)NC(=O)[C@H](Cc2c[nH]cn2)NC(=O)[C@H](CC(C)C)NC(=O)[C@H](CCC(=O)O)NC(=O)[C@H](CCC(N)=O)NC(=O)[C@H](CO)NC1=O [KaY-1],did not exhibit any improvements
,,33.5 ± 0.2,,7300 ± 700,,,,1670 ± 60 nM,retain the high degree of helicity,98.5,,,> 1000,> 1000,CC(C)C[C@H](NC(=O)[C@H](CCCCN)NC(=O)CNC(=O)[C@H](CC(C)C)NC(=O)[C@@H](NC(=O)[C@@H]1CSCSC[C@H](N)C(=O)N[C@@H](CO)C(=O)N[C@@H](CC(N)=O)C(=O)N[C@@H](CC(C)C)C(=O)N[C@@H](CO)C(=O)N[C@@H]([C@@H](C)O)C(=O)N1)C(C)C)C(=O)N[C@@H](CO)C(=O)N[C@@H](CCC(N)=O)C(=O)N[C@@H](CCC(=O)O)C(=O)N[C@@H](CC(C)C)C(=O)N[C@@H](Cc1c[nH]cn1)C(=O)N[C@@H](CCCCN)C(=O)N[C@@H](CC(C)C)C(=O)N[C@@H](CCC(N)=O)C(=O)N[C@H](C(=O)N[C@@H](Cc1ccc(O)cc1)C(=O)N1CCC[C@H]1C(=O)N[C@@H](CCCNC(=N)N)C(=O)N[C@H](C(=O)N[C@@H](CC(N)=O)C(=O)N[C@H](C(=O)NCC(=O)N[C@@H](CO)C(=O)NCC(=O)N[C@H](C(=O)N1CCC[C@H]1C(N)=O)[C@@H](C)O)[C@@H](C)O)[C@@H](C)O)[C@@H](C)O [MT-CT],
